How the values were obtained:
[1] = Half-life determined in fetal calf serum; format: ADME, Bos taurus; conditions: cattle
[2] = target: Human immunodeficiency virus type 1 reverse transcriptase (Human immunodeficiency virus 1, UniProt Q72547); assay: Inhibitory constant against HIV-1 reverse transcriptase

Structure (SMILES) | half-life [1] | Ki [2]
Nc1ccn([C@@H]2CS[C@H](COP(=O)(O)OP(=O)(O)OP(=O)(O)O)O2)c(=O)n1 [LAMIVUDINE TRIPHOSPHATE] | 3 h | 188 nM
BP(=O)(OC[C@@H]1CC[C@H](n2cnc3c(N)ncnc32)O1)OP(=O)(O)C(F)(F)P(=O)(O)O (stereo not given in full) | – | 47 nM
BP(=O)(OC[C@@H]1CC[C@H](n2ccc(N)nc2=O)O1)OP(=O)(O)C(F)(F)P(=O)(O)O (stereo not given in full) | > 48 h | 23 nM
Nc1nc(=O)n([C@H]2CS[C@@H](COP(=O)(O)OP(=O)(O)OP(=O)(O)O)O2)cc1F | – | 501 nM
Cc1cn([C@H]2C[C@H](N=[N+]=[N-])[C@@H](CO[P@](=O)(O)O[P@](=O)(O)OP(=O)(O)O)O2)c(=O)[nH]c1=O [ZIDOVUDINE TRIPHOSPHATE] | 2 h | 91 nM
Nc1nc(O)c2ncn([C@H]3C=CC(COP(=O)(O)OP(=O)(O)OP(=O)(O)O)C3)c2n1 (stereo not given in full) | – | 37 nM
O=c1ccn([C@H]2CC[C@@H](COP(=O)(O)OP(=O)(O)OP(=O)(O)O)O2)c(=O)[nH]1 | 1 h | 545 nM
Nc1ncnc2c1ncn2[C@H]1CC[C@@H](COP(=O)(O)OP(=O)(O)OP(=O)(O)O)O1 [DDA-TRIPHOSPHATE] | – | 20 nM
BP(=O)(OC[C@@H]1CC[C@H](n2cc(C)c(=O)[nH]c2=O)O1)OP(=O)(O)C(F)(F)P(=O)(O)O (mixture of isomers) | – | 236 nM
BP(=O)(OC[C@H]1O[C@@H](n2cc(C)c(=O)[nH]c2=O)C[C@@H]1F)OP(=O)(O)C(F)(F)P(=O)(O)O (stereo not given in full) | – | 46 nM
BP(=O)(OC[C@@H]1C=C[C@H](n2cnc3c(O)nc(N)nc32)C1)OP(=O)(O)C(F)(F)P(=O)(O)O (stereo not given in full) | – | 34 nM
BP(=O)(OC[C@H]1O[C@@H](n2ccc(N)nc2=O)CS1)OP(=O)(O)C(F)(F)P(=O)(O)O (mixture of isomers) | > 48 h | 314 nM
NC1=NCc2c(ncn2[C@H]2CC[C@@H](COP(=O)(O)OP(=O)(O)OP(=O)(O)O)O2)C1=O | – | 25 nM
Cc1cn([C@H]2C[C@H](O)[C@@H](COP(=O)(O)OP(=O)(O)OP(=O)(O)O)O2)c(=O)[nH]c1=O [DEOXYTHYMIDINE_TRIPHOSPHATE] | – | 61 nM
BP(=O)(OC[C@@H]1C=C[C@H](n2cc(C)c(=O)[nH]c2=O)O1)OP(=O)(O)C(F)(F)P(=O)(O)O (stereo not given in full) | – | 45 nM
BP(=O)(OC[C@H]1O[C@@H](n2cc(C)c(=O)[nH]c2=O)C[C@@H]1N=[N+]=[N-])OP(=O)(O)C(F)(F)P(=O)(O)O (stereo not given in full) | > 48 h | 94 nM
BP(=O)(OC[C@H]1O[C@@H](n2cc(F)c(N)nc2=O)CS1)OP(=O)(O)C(F)(F)P(=O)(O)O (stereo not given in full) | – | 1770 nM
BP(=O)(OC[C@@H]1CC[C@H](n2ccc(=O)[nH]c2=O)O1)OP(=O)(O)C(F)(F)P(=O)(O)O (stereo not given in full) | > 48 h | 438 nM
Nc1ccn([C@H]2CC[C@@H](CO)O2)c(=O)n1 [ZALCITABINE] | – | 51 nM
BP(=O)(OC[C@@H]1CC[C@H](n2cnc3c(O)nc(N)cc32)O1)OP(=O)(O)C(F)(F)P(=O)(O)O (single isomer, unassigned; diastereomer I) | – | 71 nM
Cc1cn([C@H]2C=C[C@@H](COP(=O)(O)OP(=O)(O)OP(=O)(O)O)O2)c(=O)[nH]c1=O [STAVUDINE TRIPHOSPHATE] | – | 56 nM
Cc1cn([C@H]2C[C@H](F)[C@@H](COP(=O)(O)OP(=O)(O)OP(=O)(O)O)O2)c(=O)[nH]c1=O | – | 71 nM
Nc1ccn([C@H]2CC[C@@H](COP(=O)(O)OP(=O)(O)OP(=O)(O)O)O2)c(=O)n1 [DDCTP] | 0.8 h | –
